Values joined by “and” are separate entries in the source; they are usually repeats but may differ in a detail not shown here. Equal entries are not always repeated. Inconclusive results and toxic doses are left out.
Test system: L1210 leukemia ip in BDF1 mice, survival T/C
Assay: NCI In Vivo Anticancer Drug Screen. Data for tumor model L1210 Leukemia (intraperitoneal) in B6D2F1 (BDF1) mice
Conditions: endpoint: mean survival time, higher = longer survival
Method in brief: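 In this screen, tumor-bearing mice given compound are compared to those given vehicle, and their survival values are reported as a treated-to-control quotient.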

[1] = dose: 100.0 mg/kg/injection, schedule: Q04DX003 (ip), vehicle: Klucel (hydroxypropylcellulose) (HPC)
[2] = dose: 200.0 mg/kg/injection, schedule: Q04DX003 (ip), vehicle: Klucel (hydroxypropylcellulose) (HPC)
[3] = dose: 400.0 mg/kg/injection, schedule: Q04DX003 (ip), vehicle: Klucel (hydroxypropylcellulose) (HPC)
[4] = dose: 100.0 mg/kg/injection, schedule: Q04DX003 (ip), vehicle: saline
[5] = dose: 200.0 mg/kg/injection, schedule: Q04DX003 (ip), vehicle: saline
[6] = dose: 400.0 mg/kg/injection, schedule: Q04DX003 (ip), vehicle: saline

For `CCOC(=O)c1ccc(N(CC2CO2)S(=O)(=O)c2ccc(C)cc2)cc1` (stereo not drawn), the T/C (dose: 100.0 mg/kg/injection, schedule: Q04DX003 (ip), vehicle: saline with Tween-80) was 105 % of control, the T/C (dose: 200.0 mg/kg/injection, schedule: Q04DX003 (ip), vehicle: saline with Tween-80) was 90 % of control and the T/C (dose: 400.0 mg/kg/injection, schedule: Q04DX003 (ip), vehicle: saline with Tween-80) was 92 % of control.
In the case of `COc1ccc(Br)cc1`, the T/C (dose: 100.0 mg/kg/injection, schedule: Q01DX009 (ip), vehicle: saline with Tween-80) is reported as 96 % of control, the T/C [1] is reported as 100 % of control and the T/C (dose: 200.0 mg/kg/injection, schedule: Q01DX009 (ip), vehicle: saline with Tween-80) is reported as 89 % of control. The T/C [2] was 100 % of control and the T/C [3] was 103 % of control.
With `COCCCN=C(N)C(N)=NCCCOC` the T/C (dose: 100.0 mg/kg/injection, schedule: Q01DX009 (ip), vehicle: saline) was 99 % of control, the T/C [4] was 100 % of control and 98 % of control and the T/C (dose: 200.0 mg/kg/injection, schedule: Q01DX009 (ip), vehicle: saline) was 98 % of control. For the same molecule, the T/C [5] was 93 % of control and 101 % of control, the T/C (dose: 400.0 mg/kg/injection, schedule: Q01DX009 (ip), vehicle: saline) was 98 % of control and the T/C [6] was 93 % of control and 95 % of control.
In the case of `CC(C)C1(C)NC(=O)NC1=O` (stereo not drawn), the T/C [4] is reported as 110 % of control, the T/C [5] is reported as 105 % of control and the T/C [6] is reported as 100 % of control.
In the case of `CCOP(=O)(OCC)Oc1cc(C)c(N(C)C)c(C)c1`, the T/C (dose: 75.0 mg/kg/injection, schedule: Q01DX001 (ip), vehicle: saline) is reported as 101 % of control and the T/C (dose: 150.0 mg/kg/injection, schedule: Q01DX001 (ip), vehicle: saline) is reported as 90 % of control.
`CCN1CC1` (tested in a mixture with another compound) was tested, and the T/C (dose: 1.56 mg/kg/injection, schedule: Q01DX001 (ip), vehicle: Klucel (hydroxypropylcellulose) (HPC)) was 101 % of control, the T/C (dose: 3.12 mg/kg/injection, schedule: Q01DX001 (ip), vehicle: Klucel (hydroxypropylcellulose) (HPC)) was 99 % of control and the T/C (dose: 6.25 mg/kg/injection, schedule: Q01DX001 (ip), vehicle: Klucel (hydroxypropylcellulose) (HPC)) was 104 % of control. The T/C (dose: 25.0 mg/kg/injection, schedule: Q01DX001 (ip), vehicle: other) was 111 % of control.
In the case of `COC(=O)COc1cc(Cl)c(Cl)cc1Cl`, the T/C (dose: 100.0 mg/kg/injection, schedule: Q04DX002 (ip), vehicle: saline with Tween-80) is reported as 95 % of control and the T/C (dose: 200.0 mg/kg/injection, schedule: Q04DX002 (ip), vehicle: saline with Tween-80) is reported as 95 % of control.
For `NC(=O)c1[nH]cnc1/N=N/N(CCCl)Cc1ccccc1`, the T/C (dose: 100.0 mg/kg/injection, schedule: Q01DX001 (ip), vehicle: Klucel (hydroxypropylcellulose) (HPC)) was 111 % of control, the T/C (dose: 100.0 mg/kg/injection, schedule: Q01DX009 (ip), vehicle: Klucel (hydroxypropylcellulose) (HPC)) was 255 % of control and the T/C [1] was 123 % of control. The T/C (dose: 133.0 mg/kg/injection, schedule: Q01DX001 (ip), vehicle: Klucel (hydroxypropylcellulose) (HPC)) was 120 % of control, the T/C (dose: 200.0 mg/kg/injection, schedule: Q01DX009 (ip), vehicle: Klucel (hydroxypropylcellulose) (HPC)) was 164 % of control and the T/C [2] was 221 % of control. For the same molecule, the T/C (dose: 400.0 mg/kg/injection, schedule: Q01DX001 (ip), vehicle: Klucel (hydroxypropylcellulose) (HPC)) was 174 % of control and 195 % of control, the T/C (dose: 400.0 mg/kg/injection, schedule: Q01DX009 (ip), vehicle: Klucel (hydroxypropylcellulose) (HPC)) was 117 % of control and the T/C [3] was 296 % of control.
With `CC(=O)Oc1c(-c2ccccc2)cc([N+](=O)[O-])cc1[N+](=O)[O-]` the T/C (dose: 50.0 mg/kg/injection, schedule: Q04DX002 (ip), vehicle: Klucel (hydroxypropylcellulose) (HPC)) was 97 % of control, the T/C (dose: 100.0 mg/kg/injection, schedule: Q04DX002 (ip), vehicle: Klucel (hydroxypropylcellulose) (HPC)) was 103 % of control and the T/C (dose: 200.0 mg/kg/injection, schedule: Q04DX002 (ip), vehicle: Klucel (hydroxypropylcellulose) (HPC)) was 94 % of control.
For `CCCOC(=O)NCCSC(=O)OCCC`, the T/C (dose: 100.0 mg/kg/injection, schedule: Q01DX001 (ip), vehicle: saline with Tween-80) was 95 % of control, the T/C (dose: 200.0 mg/kg/injection, schedule: Q01DX001 (ip), vehicle: saline with Tween-80) was 95 % of control and the T/C (dose: 400.0 mg/kg/injection, schedule: Q01DX001 (ip), vehicle: saline with Tween-80) was 108 % of control.
`COc1ccc(C2CCCCC2OS(C)(=O)=O)cc1` (stereo not drawn) was tested, and the T/C (dose: 100.0 mg/kg/injection, schedule: Q01DX001 (ip), vehicle: carboxymethylcellulose (CMC)) was 97 % of control, the T/C (dose: 200.0 mg/kg/injection, schedule: Q01DX001 (ip), vehicle: carboxymethylcellulose (CMC)) was 106 % of control and the T/C (dose: 400.0 mg/kg/injection, schedule: Q01DX001 (ip), vehicle: carboxymethylcellulose (CMC)) was 95 % of control.

From PubChem BioAssay AID248 (DTP/NCI, 2004)
